# According to patent US8637525B2, “Compounds for the reduction of beta-amyloid production” (Bristol-Myers Squibb Company, priority 2009, dated 2014):
# System: Aβ1-42 production
# Assay: Cellular assay for inhibition of Aβ1-42 production (H4 APP751 SWE clone 8.20)
# Format: cell-based
# Conditions: 19 h, H4 APP751 SWE clone 8.20 cells, 19 h incubation; class symbols; read-out: Activity Rating (Aβ42 cellular IC50)
# How it was run: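 Viewlux signal read-out; IC50 by curve fit. Sandwich: 565 anti-Aβ42 neoepitope (Wallac conjugate, 0.8 ng/well) + 26D6 anti-N-terminus (APC, 75 ng/well), in Tris-HCl 40 mM pH 7.4/0.2% BSA, o/n 4 °C. Cells exposed to compound 19 h, 37 °C, 5% CO2.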
row,SMILES,IC50 [nM]
1,"CCN(C)c1nc(Nc2ccc(-n3cnc(Cl)c3)c(OC)c2)nc2c1CN(C)CC2c1ccc(F)cc1 (centres unmarked) [Example 165, N2-(4-(4-chloro-1H-imidazol-1-yl)-3-methoxyphenyl)-N4-ethyl-8-(4-fluorophenyl)-N4,6-dimethyl-5,6,7,8-tetrahydropyrido[4,3-d]pyrimidine-2,4-diamine]",10 to 100
2,"CCN(C)c1nc(Nc2ccc(-n3cnc(Cl)c3)c(OC)c2)nc2c1CCNC2c1ccc(F)cc1 (centres unmarked) [Example 166, N2-(4-(4-chloro-1H-imidazol-1-yl)-3-methoxyphenyl)-N4-ethyl-8-(4-fluorophenyl)-N4-methyl-5,6,7,8-tetrahydropyrido[3,4-d]pyrimidine-2,4-diamine]",100 to 1000
3,COc1cc(Nc2nc3c(c(N4CC[C@@H](F)C4)n2)CCN(S(C)(=O)=O)C3c2ccc(F)cc2)ccc1-n1cnc(Cl)c1 (some centres unmarked) [Example 174],10 to 100
4,"CCNc1nc(Nc2ccc(-n3cnc(Cl)c3)c(OC)c2)nc2c1CCN(C)C2c1ccc(F)cc1 (centres unmarked) [Example 175, N2-(4-(4-chloro-1H-imidazol-1-yl)-3-methoxyphenyl)-N4-ethyl-8-(4-fluorophenyl)-7-methyl-5,6,7,8-tetrahydropyrido[3,4-d]pyrimidine-2,4-diamine]",10 to 100
5,"[2H]C([2H])([2H])Nc1nc(Nc2ccc(-n3cnc(Cl)c3)c(OC)c2)nc2c1CCC2c1ccccc1 (centres unmarked) [Example 176, N^2-(4-(4-Chloro-1H-imidazol-1-yl)-3-methoxyphenyl)-N^4-trideuteromethyl-7-phenyl-6,7-dihydro-5H-cyclopenta[d]pyrimidine-2,4-diamine]",1.5 to 9.9
6,"CNc1nc(Nc2ccc(-n3cnc(Cl)c3)c(OC)c2)nc2c1C=CCC2(O)c1ccccc1 (centres unmarked) [Example 177, 2-(4-(4-chloro-1H-imidazol-1-yl)-3-methoxyphenylamino)-4-(methylamino)-8-phenyl-7,8-dihydroquinazolin-8-ol]",10 to 100
7,"CNc1nc(Nc2ccc(-n3cnc(Cl)c3)c(OC)c2)nc2c1CCCC2(O)c1ccccc1 (centres unmarked) [Example 178, 2-(4-(4-chloro-1H-imidazol-1-yl)-3-methoxyphenylamino)-4-(methylamino)-8-phenyl-5,6,7,8-tetrahydroquinazolin-8-ol]",1.5 to 9.9
8,"COc1cc(Nc2nc(N(C)C)c3c(n2)C(O)(c2ccccc2)CC3)ccc1-n1cnc(Cl)c1 (centres unmarked) [Example 179, 2-(4-(4-chloro-1H-imidazol-1-yl)-3-methoxyphenylamino)-4-(dimethylamino)-7-phenyl-6,7-dihydro-5H-cyclopenta[d]pyrimidin-7-ol]",10 to 100
9,"COc1cc(Nc2nc3c(c(N(C)C)n2)C[C@H](O)[C@H]3c2ccccc2)ccc1-n1cnc(Cl)c1 [Example 180, (6S,7S)-2-(4-(4-chloro-1H-imidazol-1-yl)-3-methoxyphenylamino)-4-(dimethylamino)-7-phenyl-6,7-dihydro-5H-cyclopenta[d]pyrimidin-6-ol]",10 to 100
10,"COc1cc(Nc2nc3c(c(N4CC5(C4)OCCO5)n2)CCC3c2ccccc2)ccc1-n1cnc(Cl)c1 (centres unmarked) [Example 184, N-(4-(4-chloro-1H-imidazol-1-yl)-3-methoxyphenyl)-7-phenyl-4-(5,8-dioxa-2-azaspiro[3.4]octan-2-yl)-6,7-dihydro-5H-cyclopenta[d]pyrimidin-2-amine]",10 to 100
11,"COc1cc(Nc2nc3c(c(N4CC(=O)C4)n2)CCC3c2ccccc2)ccc1-n1cnc(Cl)c1 (centres unmarked) [Example 185, 1-(2-(4-(4-chloro-1H-imidazol-1-yl)-3-methoxyphenylamino)-7-phenyl-6,7-dihydro-5H-cyclopenta[d]pyrimidin-4-yl)azetidin-3-one]",10 to 100
12,"COc1cc(Nc2nc3c(c(N4CC(C)(C#N)C4)n2)CCC3c2ccc(F)cc2)ccc1-n1cnc(Cl)c1 (centres unmarked) [Example 186, 1-(2-(4-(4-chloro-1H-imidazol-1-yl)-3-methoxyphenylamino)-7-(4-fluorophenyl)-6,7-dihydro-5H-cyclopenta[d]pyrimidin-4-yl)-3-methylazetidine-3-carbonitrile]",10 to 100

# Other lines, results leading:
row,IC50 [nM],SMILES
1,10 to 100,"CCNc1nc(Nc2ccc(-n3cnc(Cl)c3)c(OC)c2)nc2c1CN(C)CC2c1ccc(F)cc1 (centres unmarked) [Example 164A, N2-(4-(4-chloro-1H-imidazol-1-yl)-3-methoxyphenyl)-N4-ethyl-8-(4-fluorophenyl)-6-methyl-5,6,7,8-tetrahydropyrido[4,3-d]pyrimidine-2,4-diamine]"
2,1.5 to 9.9,"CCNc1nc(Nc2ccc(-n3cnc(Cl)c3)c(OC)c2)nc2c1CCN(S(C)(=O)=O)C2c1ccc(F)cc1 (centres unmarked) [Example 168A, N2-(4-(4-chloro-1H-imidazol-1-yl)-3-methoxyphenyl)-N4-ethyl-8-(4-fluorophenyl)-7-(methylsulfonyl)-5,6,7,8-tetrahydropyrido[3,4-d]pyrimidine-2,4-diamine]"

# Same assay, conditions: 19 h, H4 APP751 SWE clone 8.20 cells, 19 h incubation; read-out: Activity Rating (Aβ42 cellular IC50), numeric value
row,SMILES,IC50 [nM]
1,"CCNc1nc(Nc2ccc(-n3cnc(Cl)c3)c(OC)c2)nc2c1CCN(C(C)=O)C2c1ccc(F)cc1 (centres unmarked) [Example 171, 1-(2-(4-(4-chloro-1H-imidazol-1-yl)-3-methoxyphenylamino)-4-(ethylamino)-8-(4-fluorophenyl)-5,6-dihydropyrido[3,4-d]pyrimidin-7(8H)-yl)ethanone]",16
2,COc1cc(Nc2nc3c(c(N4CC[C@@H](F)C4)n2)CCN(S(C)(=O)=O)C3c2ccc(F)cc2)ccc1-n1cnc(Cl)c1 (some centres unmarked) [Example 173],490
3,"COc1cc(Nc2nc3c(c(N4CC(OC)C4)n2)CCC3c2ccccc2)ccc1-n1cnc(Cl)c1 (centres unmarked) [Example 183, N-(4-(4-chloro-1H-imidazol-1-yl)-3-methoxyphenyl)-4-(3-methoxyazetidin-1-yl)-7-phenyl-6,7-dihydro-5H-cyclopenta[d]pyrimidin-2-amine]",11

# More lines, now with the values ahead:
row,IC50 [nM],SMILES
1,180,"CCN(C)c1nc(Nc2ccc(-n3cnc(Cl)c3)c(OC)c2)nc2c1CN(C)CC2c1ccc(F)cc1 (centres unmarked) [Example 165B, N2-(4-(4-chloro-1H-imidazol-1-yl)-3-methoxyphenyl)-N4-ethyl-8-(4-fluorophenyl)-N4,6-dimethyl-5,6,7,8-tetrahydropyrido[4,3-d]pyrimidine-2,4-diamine]"
2,26,"COc1ccc(CN2CCc3c(nc(Nc4ccc(-n5cnc(Cl)c5)c(OC)c4)nc3N3CC[C@H](F)C3)C2c2ccc(F)cc2)cc1 (stereo partly drawn) [Example 167A, N-(4-(4-chloro-1H-imidazol-1-yl)-3-methoxyphenyl)-8-(4-fluorophenyl)-4-((S)-3-fluoropyrrolidin-1-yl)-7-(4-methoxybenzyl)-5,6,7,8-tetrahydropyrido[3,4-d]pyrimidin-2-amine]"
3,50,"COc1cc(Nc2nc3c(c(N4CC(Cl)C4)n2)CCC3c2ccccc2)ccc1-n1cnc(Cl)c1 (centres unmarked) [Example 181B, N-(4-(4-chloro-1H-imidazol-1-yl)-3-methoxyphenyl)-4-(3-chloroazetidin-1-yl)-7-phenyl-6,7-dihydro-5H-cyclopenta[d]pyrimidin-2-amine]"

# Same assay, conditions: H4 APP751 SWE clone 8.20 cells, 19 h incubation; class symbols; read-out: Activity Rating (Aβ42 cellular IC50)
row,SMILES,IC50 [nM]
1,"CCNc1nc(Nc2ccc(-n3cnc(Cl)c3)c(OC)c2)nc2c1CCN(CC)C2c1ccc(F)cc1 (centres unmarked) [Example 169, N2-(4-(4-chloro-1H-imidazol-1-yl)-3-methoxyphenyl)-N4,7-diethyl-8-(4-fluorophenyl)-5,6,7,8-tetrahydropyrido[3,4-d]pyrimidine-2,4-diamine]",10 to 100
2,"CCNc1nc(Nc2ccc(-n3cnc(Cl)c3)c(OC)c2)nc2c1CCN(C(=O)OC)C2c1ccc(F)cc1 (centres unmarked) [Example 170, methyl 2-(4-(4-chloro-1H-imidazol-1-yl)-3-methoxyphenylamino)-4-(ethylamino)-8-(4-fluorophenyl)-5,6-dihydropyrido[3,4-d]pyrimidine-7(8H)-carboxylate]",10 to 100
3,"COc1cc(Nc2nc3c(c(N4CC(Cl)C4)n2)CCC3c2ccccc2)ccc1-n1cnc(Cl)c1 (centres unmarked) [Example 181, N-(4-(4-chloro-1H-imidazol-1-yl)-3-methoxyphenyl)-4-(3-chloroazetidin-1-yl)-7-phenyl-6,7-dihydro-5H-cyclopenta[d]pyrimidin-2-amine]",10 to 100
4,"COc1cc(Nc2nc3c(c(N4CC(F)C4)n2)CCC3c2ccccc2)ccc1-n1cnc(Cl)c1 (centres unmarked) [Example 182, N-(4-(4-chloro-1H-imidazol-1-yl)-3-methoxyphenyl)-4-(3-fluoroazetidin-1-yl)-7-phenyl-6,7-dihydro-5H-cyclopenta[d]pyrimidin-2-amine]",10 to 100

# The next lines start with the values.
row,IC50 [nM],SMILES
1,1.5 to 9.9,"CCN(C)c1nc(Nc2ccc(-n3cnc(Cl)c3)c(OC)c2)nc2c1CCN(S(C)(=O)=O)C2c1ccc(F)cc1 (centres unmarked) [Example 172A, N2-(4-(4-chloro-1H-imidazol-1-yl)-3-methoxyphenyl)-N4-ethyl-8-(4-fluorophenyl)-N4-methyl-7-(methylsulfonyl)-5,6,7,8-tetrahydropyrido[3,4-d]pyrimidine-2,4-diamine]"
2,100 to 1000,"CCN(C)c1nc(Nc2ccc(-n3cnc(Cl)c3)c(OC)c2)nc2c1CCN(S(C)(=O)=O)C2c1ccc(F)cc1 (centres unmarked) [Example 172B, N2-(4-(4-chloro-1H-imidazol-1-yl)-3-methoxyphenyl)-N4-ethyl-8-(4-fluorophenyl)-N4-methyl-7-(methylsulfonyl)-5,6,7,8-tetrahydropyrido[3,4-d]pyrimidine-2,4-diamine]"
3,1.5 to 9.9,"COc1cc(Nc2nc3c(c(N4CC(Cl)C4)n2)CCC3c2ccccc2)ccc1-n1cnc(Cl)c1 (centres unmarked) [Example 181A, N-(4-(4-chloro-1H-imidazol-1-yl)-3-methoxyphenyl)-4-(3-chloroazetidin-1-yl)-7-phenyl-6,7-dihydro-5H-cyclopenta[d]pyrimidin-2-amine]"
4,1.5 to 9.9,"COc1cc(Nc2nc3c(c(N4CC(F)C4)n2)CCC3c2ccccc2)ccc1-n1cnc(Cl)c1 (centres unmarked) [Example 182A, N-(4-(4-chloro-1H-imidazol-1-yl)-3-methoxyphenyl)-4-(3-fluoroazetidin-1-yl)-7-phenyl-6,7-dihydro-5H-cyclopenta[d]pyrimidin-2-amine]"
5,10 to 100,"COc1cc(Nc2nc3c(c(N4CC(F)C4)n2)CCC3c2ccccc2)ccc1-n1cnc(Cl)c1 (centres unmarked) [Example 182B, N-(4-(4-chloro-1H-imidazol-1-yl)-3-methoxyphenyl)-4-(3-fluoroazetidin-1-yl)-7-phenyl-6,7-dihydro-5H-cyclopenta[d]pyrimidin-2-amine]"
